Test results from ChEMBL document CHEMBL3991601, “The target landscape of clinical kinase drugs” (Science, 2017).
The source made the active and inactive calls. Cut-off read from the data, not from the text of the source, for most assays here: actives have a measured Kd and inactives only a lower limit.

molecular target: GTP-binding protein 4 (Homo sapiens, UniProt Q9BZE4)
Note: in the data inactive means no Kd found up to 30 µM.

Row | Compound | Kd
1 | N[C@@H]1CCCN(c2c(/C=C3\SC(=O)NC3=O)cccc2-c2ccccc2)C1 | > 30 µM (inactive)
2 | Cc1ccc(S(=O)(=O)Nc2nc3ccccc3nc2Nc2ccc3nsnc3c2)cc1 | > 30 µM (inactive)
3 | CN1CC[C@@H](c2c(O)cc(O)c3c(=O)cc(-c4ccccc4Cl)oc23)[C@@H]1CO | > 30 µM (inactive)
4 | Cc1cc(-c2cc(O)ccc2Cl)cc2nnc(Nc3ccc(OCCN4CCCC4)cc3)nc12 | > 30 µM (inactive)
5 | CCN1CCN(Cc2ccc(-c3cc4c(N[C@H](C)c5ccccc5)ncnc4[nH]3)cc2)CC1 [AEE-788] | > 30 µM (inactive)

molecular target: Tyrosine-protein kinase ABL2 (Homo sapiens, UniProt P42684)
Sequence (P42684 whole entry): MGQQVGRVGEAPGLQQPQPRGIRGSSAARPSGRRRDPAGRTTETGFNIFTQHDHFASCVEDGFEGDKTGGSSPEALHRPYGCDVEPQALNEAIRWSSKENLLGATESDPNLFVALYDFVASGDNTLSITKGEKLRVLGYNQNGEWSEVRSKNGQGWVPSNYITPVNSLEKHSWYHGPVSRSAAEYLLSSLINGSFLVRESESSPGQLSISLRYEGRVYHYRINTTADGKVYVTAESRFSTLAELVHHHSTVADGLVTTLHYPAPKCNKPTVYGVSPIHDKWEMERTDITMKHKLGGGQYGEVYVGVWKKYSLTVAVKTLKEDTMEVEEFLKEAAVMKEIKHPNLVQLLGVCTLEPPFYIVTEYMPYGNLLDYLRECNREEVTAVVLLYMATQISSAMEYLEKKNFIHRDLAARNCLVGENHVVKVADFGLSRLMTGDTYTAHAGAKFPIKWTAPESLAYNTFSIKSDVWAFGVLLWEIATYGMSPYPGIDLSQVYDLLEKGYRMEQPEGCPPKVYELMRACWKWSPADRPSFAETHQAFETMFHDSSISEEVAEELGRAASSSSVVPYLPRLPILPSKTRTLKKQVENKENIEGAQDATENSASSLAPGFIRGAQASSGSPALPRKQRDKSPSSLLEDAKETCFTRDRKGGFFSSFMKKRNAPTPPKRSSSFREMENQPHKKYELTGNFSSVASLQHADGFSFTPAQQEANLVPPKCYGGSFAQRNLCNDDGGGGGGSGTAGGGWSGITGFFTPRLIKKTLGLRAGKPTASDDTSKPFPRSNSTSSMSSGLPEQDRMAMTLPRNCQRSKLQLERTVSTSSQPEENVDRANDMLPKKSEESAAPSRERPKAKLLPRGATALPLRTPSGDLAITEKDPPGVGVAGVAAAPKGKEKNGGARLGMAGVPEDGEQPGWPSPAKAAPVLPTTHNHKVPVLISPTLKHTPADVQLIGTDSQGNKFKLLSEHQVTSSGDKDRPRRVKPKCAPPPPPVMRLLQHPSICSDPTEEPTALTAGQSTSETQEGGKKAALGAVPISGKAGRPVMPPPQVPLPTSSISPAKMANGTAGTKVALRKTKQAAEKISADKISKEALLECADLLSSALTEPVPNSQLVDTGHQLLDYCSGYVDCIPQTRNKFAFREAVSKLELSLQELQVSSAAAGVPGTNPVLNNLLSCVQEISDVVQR

Row | Compound | Kd
6 | N[C@@H]1CCCN(c2c(/C=C3\SC(=O)NC3=O)cccc2-c2ccccc2)C1 | > 30 µM (inactive)
7 | Cc1ccc(S(=O)(=O)Nc2nc3ccccc3nc2Nc2ccc3nsnc3c2)cc1 | > 30 µM (inactive)
8 | CN1CC[C@@H](c2c(O)cc(O)c3c(=O)cc(-c4ccccc4Cl)oc23)[C@@H]1CO | > 30 µM (inactive)
9 | Cc1cc(-c2cc(O)ccc2Cl)cc2nnc(Nc3ccc(OCCN4CCCC4)cc3)nc12 | 0.001 µM (active)
10 | CCN1CCN(Cc2ccc(-c3cc4c(N[C@H](C)c5ccccc5)ncnc4[nH]3)cc2)CC1 [AEE-788] | 14.9 µM (active)

molecular target: T1, Serine/threonine-protein kinase ULK3 (Homo sapiens, UniProt Q6PHR2)
T1 sequence (Q6PHR2 whole entry): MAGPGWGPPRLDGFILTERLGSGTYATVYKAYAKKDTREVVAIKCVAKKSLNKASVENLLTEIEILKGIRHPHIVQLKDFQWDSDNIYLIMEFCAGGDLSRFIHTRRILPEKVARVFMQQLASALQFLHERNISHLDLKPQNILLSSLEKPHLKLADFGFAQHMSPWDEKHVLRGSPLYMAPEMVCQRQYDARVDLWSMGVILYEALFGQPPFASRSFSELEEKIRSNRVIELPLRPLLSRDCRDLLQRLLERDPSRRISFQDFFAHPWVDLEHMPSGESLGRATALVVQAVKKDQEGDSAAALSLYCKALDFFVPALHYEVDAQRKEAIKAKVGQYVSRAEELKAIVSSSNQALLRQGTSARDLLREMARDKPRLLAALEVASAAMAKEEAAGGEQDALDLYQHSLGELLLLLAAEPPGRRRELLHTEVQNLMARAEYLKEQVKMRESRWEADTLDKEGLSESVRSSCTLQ

Row | Compound | Kd
11 | N[C@@H]1CCCN(c2c(/C=C3\SC(=O)NC3=O)cccc2-c2ccccc2)C1 | > 30 µM (inactive)
12 | Cc1ccc(S(=O)(=O)Nc2nc3ccccc3nc2Nc2ccc3nsnc3c2)cc1 | > 30 µM (inactive)
13 | CN1CC[C@@H](c2c(O)cc(O)c3c(=O)cc(-c4ccccc4Cl)oc23)[C@@H]1CO | > 30 µM (inactive)
14 | Cc1cc(-c2cc(O)ccc2Cl)cc2nnc(Nc3ccc(OCCN4CCCC4)cc3)nc12 | > 30 µM (inactive)
15 | CCN1CCN(Cc2ccc(-c3cc4c(N[C@H](C)c5ccccc5)ncnc4[nH]3)cc2)CC1 [AEE-788] | > 30 µM (inactive)

molecular target: Ephrin type-A receptor 5 (Homo sapiens, UniProt P54756)
Sequence (P54756 whole entry): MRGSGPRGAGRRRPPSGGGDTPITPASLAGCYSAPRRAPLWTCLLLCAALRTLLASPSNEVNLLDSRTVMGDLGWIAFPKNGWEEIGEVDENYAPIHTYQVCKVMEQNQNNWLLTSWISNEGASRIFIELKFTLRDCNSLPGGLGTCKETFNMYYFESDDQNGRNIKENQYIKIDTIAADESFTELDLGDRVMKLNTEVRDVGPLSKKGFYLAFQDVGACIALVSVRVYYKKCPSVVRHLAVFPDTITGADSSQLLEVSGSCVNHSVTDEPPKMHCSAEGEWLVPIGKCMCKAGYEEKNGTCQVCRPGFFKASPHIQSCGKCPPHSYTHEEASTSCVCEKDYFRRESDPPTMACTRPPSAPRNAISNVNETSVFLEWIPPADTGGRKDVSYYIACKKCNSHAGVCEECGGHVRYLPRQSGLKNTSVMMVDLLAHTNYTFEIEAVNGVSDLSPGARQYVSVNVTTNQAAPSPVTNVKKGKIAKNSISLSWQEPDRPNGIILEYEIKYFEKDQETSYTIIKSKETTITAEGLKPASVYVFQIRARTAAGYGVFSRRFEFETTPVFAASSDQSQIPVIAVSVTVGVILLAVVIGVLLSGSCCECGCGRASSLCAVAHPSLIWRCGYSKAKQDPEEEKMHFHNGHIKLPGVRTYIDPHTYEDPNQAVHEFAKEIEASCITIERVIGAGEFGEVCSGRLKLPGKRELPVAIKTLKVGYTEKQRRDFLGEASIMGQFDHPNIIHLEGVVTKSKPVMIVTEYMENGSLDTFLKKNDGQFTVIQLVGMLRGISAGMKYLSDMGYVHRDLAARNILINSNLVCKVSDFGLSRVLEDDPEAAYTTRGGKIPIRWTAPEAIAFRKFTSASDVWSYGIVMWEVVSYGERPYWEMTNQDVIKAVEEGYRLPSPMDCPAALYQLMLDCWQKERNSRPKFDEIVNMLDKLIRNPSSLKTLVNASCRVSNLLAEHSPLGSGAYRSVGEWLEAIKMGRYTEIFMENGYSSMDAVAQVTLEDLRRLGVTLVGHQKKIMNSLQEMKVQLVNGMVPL

Row | Compound | Kd
16 | Cc1ccc(S(=O)(=O)Nc2nc3ccccc3nc2Nc2ccc3nsnc3c2)cc1 | > 30 µM (inactive)
17 | CN1CC[C@@H](c2c(O)cc(O)c3c(=O)cc(-c4ccccc4Cl)oc23)[C@@H]1CO | > 30 µM (inactive)
18 | Cc1cc(-c2cc(O)ccc2Cl)cc2nnc(Nc3ccc(OCCN4CCCC4)cc3)nc12 | 0.0004 µM (active)
19 | CCN1CCN(Cc2ccc(-c3cc4c(N[C@H](C)c5ccccc5)ncnc4[nH]3)cc2)CC1 [AEE-788] | > 30 µM (inactive)

molecular target: T2, Serine/threonine-protein kinase Nek3 (Homo sapiens, UniProt P51956)
T2 sequence (P51956 whole entry): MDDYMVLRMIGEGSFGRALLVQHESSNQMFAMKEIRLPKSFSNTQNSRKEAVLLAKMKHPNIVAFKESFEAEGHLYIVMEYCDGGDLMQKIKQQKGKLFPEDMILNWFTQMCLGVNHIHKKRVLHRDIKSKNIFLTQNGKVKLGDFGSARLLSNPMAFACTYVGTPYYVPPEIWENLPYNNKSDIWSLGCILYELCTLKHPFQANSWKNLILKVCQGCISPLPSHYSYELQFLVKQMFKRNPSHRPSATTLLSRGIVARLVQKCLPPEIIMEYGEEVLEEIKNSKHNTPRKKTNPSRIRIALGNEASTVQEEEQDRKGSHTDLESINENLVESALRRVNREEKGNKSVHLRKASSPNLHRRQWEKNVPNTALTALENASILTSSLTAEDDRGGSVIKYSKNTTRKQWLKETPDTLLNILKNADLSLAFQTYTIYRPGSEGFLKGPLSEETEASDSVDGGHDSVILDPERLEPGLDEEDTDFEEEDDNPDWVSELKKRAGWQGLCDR

Row | Compound | Kd
20 | N[C@@H]1CCCN(c2c(/C=C3\SC(=O)NC3=O)cccc2-c2ccccc2)C1 | > 30 µM (inactive)
21 | Cc1ccc(S(=O)(=O)Nc2nc3ccccc3nc2Nc2ccc3nsnc3c2)cc1 | > 30 µM (inactive)
22 | CN1CC[C@@H](c2c(O)cc(O)c3c(=O)cc(-c4ccccc4Cl)oc23)[C@@H]1CO | > 30 µM (inactive)
23 | Cc1cc(-c2cc(O)ccc2Cl)cc2nnc(Nc3ccc(OCCN4CCCC4)cc3)nc12 | > 30 µM (inactive)
24 | CCN1CCN(Cc2ccc(-c3cc4c(N[C@H](C)c5ccccc5)ncnc4[nH]3)cc2)CC1 [AEE-788] | 38.1 µM (active)

molecular target: T3, EKC/KEOPS complex subunit TP53RK (Homo sapiens, UniProt Q96S44)
T3 sequence (Q96S44 whole entry): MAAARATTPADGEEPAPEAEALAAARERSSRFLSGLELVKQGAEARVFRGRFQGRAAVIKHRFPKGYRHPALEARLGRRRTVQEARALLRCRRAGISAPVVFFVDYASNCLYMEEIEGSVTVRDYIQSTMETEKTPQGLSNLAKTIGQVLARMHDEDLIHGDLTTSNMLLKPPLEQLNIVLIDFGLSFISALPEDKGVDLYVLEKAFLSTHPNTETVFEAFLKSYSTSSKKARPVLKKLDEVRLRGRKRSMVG

Row | Compound | Kd
25 | N[C@@H]1CCCN(c2c(/C=C3\SC(=O)NC3=O)cccc2-c2ccccc2)C1 | > 30 µM (inactive)
26 | Cc1ccc(S(=O)(=O)Nc2nc3ccccc3nc2Nc2ccc3nsnc3c2)cc1 | > 30 µM (inactive)
27 | CN1CC[C@@H](c2c(O)cc(O)c3c(=O)cc(-c4ccccc4Cl)oc23)[C@@H]1CO | > 30 µM (inactive)
28 | Cc1cc(-c2cc(O)ccc2Cl)cc2nnc(Nc3ccc(OCCN4CCCC4)cc3)nc12 | > 30 µM (inactive)
29 | CCN1CCN(Cc2ccc(-c3cc4c(N[C@H](C)c5ccccc5)ncnc4[nH]3)cc2)CC1 [AEE-788] | > 30 µM (inactive)

molecular target: T4, Serine/threonine-protein kinase 3 (Homo sapiens, UniProt Q13188)
T4 sequence (Q13188 whole entry): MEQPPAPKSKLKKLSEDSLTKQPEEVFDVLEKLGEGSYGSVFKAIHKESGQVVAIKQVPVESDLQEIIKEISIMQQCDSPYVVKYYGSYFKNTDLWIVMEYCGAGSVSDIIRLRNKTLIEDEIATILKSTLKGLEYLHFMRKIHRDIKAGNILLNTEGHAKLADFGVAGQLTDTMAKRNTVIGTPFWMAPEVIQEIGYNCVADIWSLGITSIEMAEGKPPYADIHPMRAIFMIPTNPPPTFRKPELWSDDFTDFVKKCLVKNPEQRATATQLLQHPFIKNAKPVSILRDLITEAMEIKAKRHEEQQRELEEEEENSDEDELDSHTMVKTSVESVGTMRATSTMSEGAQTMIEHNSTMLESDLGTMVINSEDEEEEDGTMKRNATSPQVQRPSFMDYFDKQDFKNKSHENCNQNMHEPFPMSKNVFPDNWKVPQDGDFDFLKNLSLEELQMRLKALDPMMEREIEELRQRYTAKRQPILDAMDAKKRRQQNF

Row | Compound | Kd
30 | N[C@@H]1CCCN(c2c(/C=C3\SC(=O)NC3=O)cccc2-c2ccccc2)C1 | > 30 µM (inactive)
31 | Cc1ccc(S(=O)(=O)Nc2nc3ccccc3nc2Nc2ccc3nsnc3c2)cc1 | > 30 µM (inactive)
32 | CN1CC[C@@H](c2c(O)cc(O)c3c(=O)cc(-c4ccccc4Cl)oc23)[C@@H]1CO | > 30 µM (inactive)
33 | Cc1cc(-c2cc(O)ccc2Cl)cc2nnc(Nc3ccc(OCCN4CCCC4)cc3)nc12 | > 30 µM (inactive)
34 | CCN1CCN(Cc2ccc(-c3cc4c(N[C@H](C)c5ccccc5)ncnc4[nH]3)cc2)CC1 [AEE-788] | > 30 µM (inactive)

molecular target: T5, Dual specificity mitogen-activated protein kinase kinase 5 (Homo sapiens, UniProt Q13163)
T5 sequence (Q13163 whole entry): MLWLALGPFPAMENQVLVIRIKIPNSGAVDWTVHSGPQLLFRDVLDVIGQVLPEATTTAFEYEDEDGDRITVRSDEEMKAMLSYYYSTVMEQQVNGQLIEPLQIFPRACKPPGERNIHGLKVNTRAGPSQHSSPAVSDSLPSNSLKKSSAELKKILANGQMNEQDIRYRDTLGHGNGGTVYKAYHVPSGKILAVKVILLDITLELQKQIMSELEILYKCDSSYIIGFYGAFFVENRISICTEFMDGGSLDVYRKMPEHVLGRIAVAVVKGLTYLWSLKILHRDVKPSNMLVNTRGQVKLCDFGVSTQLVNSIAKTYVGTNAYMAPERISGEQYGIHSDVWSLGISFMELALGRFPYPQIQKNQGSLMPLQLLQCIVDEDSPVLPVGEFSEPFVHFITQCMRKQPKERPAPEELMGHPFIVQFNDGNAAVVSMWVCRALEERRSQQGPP

Row | Compound | Kd
35 | N[C@@H]1CCCN(c2c(/C=C3\SC(=O)NC3=O)cccc2-c2ccccc2)C1 | > 30 µM (inactive)
36 | Cc1ccc(S(=O)(=O)Nc2nc3ccccc3nc2Nc2ccc3nsnc3c2)cc1 | > 30 µM (inactive)
37 | CN1CC[C@@H](c2c(O)cc(O)c3c(=O)cc(-c4ccccc4Cl)oc23)[C@@H]1CO | > 30 µM (inactive)
38 | Cc1cc(-c2cc(O)ccc2Cl)cc2nnc(Nc3ccc(OCCN4CCCC4)cc3)nc12 | > 30 µM (inactive)
39 | CCN1CCN(Cc2ccc(-c3cc4c(N[C@H](C)c5ccccc5)ncnc4[nH]3)cc2)CC1 [AEE-788] | 9.43 µM (active)
